# In patent US10799605B2 (3B PHARMACEUTICALS GMBH, priority 2014, dated 2020):
# Like-named read-outs stand apart in the source and are kept apart here.
# Key:
# [1] = system: Ca2+ channel (L, verapamil site) (phenylalkylamine); assay: ExpresSProfile: Ca2+ channel, antagonist radioligand; assay type: binding; details: Test Concentration 1.0E−05 M
# 5-HT1B = 5-HT1B (Rattus norvegicus, UniProt P28564); assay: ExpresSProfile: 5-hydroxytryptamine receptor 1B, antagonist radioligand; assay type: binding; details: Test Concentration 1.0E−05 M
# KV channel = assay: ExpresSProfile: KV channel, antagonist radioligand; assay type: binding; details: Test Concentration 1.0E−05 M
# MC4 (h) = MC4 (h) (Homo sapiens (Human), UniProt P32245); assay: ExpresSProfile: melanocortin receptor 4, agonist radioligand; assay type: binding; details: Test Concentration 1.0E−05 M
# Sequence of MC4 (h) (P32245 whole entry): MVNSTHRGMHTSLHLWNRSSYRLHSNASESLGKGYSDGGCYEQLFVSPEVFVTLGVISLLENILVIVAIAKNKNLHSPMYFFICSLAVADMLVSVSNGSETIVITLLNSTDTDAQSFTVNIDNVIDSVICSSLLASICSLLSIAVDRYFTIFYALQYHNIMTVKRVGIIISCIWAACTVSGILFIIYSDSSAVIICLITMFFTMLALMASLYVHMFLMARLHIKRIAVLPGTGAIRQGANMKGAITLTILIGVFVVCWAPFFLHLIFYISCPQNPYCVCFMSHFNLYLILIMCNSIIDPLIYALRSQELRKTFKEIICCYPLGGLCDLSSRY
# 5-HT3 (h) = 5-HT3 (h) (Homo sapiens (Human), UniProt P46098); assay: ExpresSProfile: 5-hydroxytryptamine channel 3, antagonist radioligand; assay type: binding; details: Test Concentration 1.0E−05 M
# D2S (h) = D2S (h) (Homo sapiens (Human), UniProt P14416); assay: ExpresSProfile: dopamine receptor 2S, antagonist radioligand; assay type: binding; details: Test Concentration 1.0E−05 M
# Sequence of D2S (h) (P14416 other isoform, or with tags, fused parts or gaps): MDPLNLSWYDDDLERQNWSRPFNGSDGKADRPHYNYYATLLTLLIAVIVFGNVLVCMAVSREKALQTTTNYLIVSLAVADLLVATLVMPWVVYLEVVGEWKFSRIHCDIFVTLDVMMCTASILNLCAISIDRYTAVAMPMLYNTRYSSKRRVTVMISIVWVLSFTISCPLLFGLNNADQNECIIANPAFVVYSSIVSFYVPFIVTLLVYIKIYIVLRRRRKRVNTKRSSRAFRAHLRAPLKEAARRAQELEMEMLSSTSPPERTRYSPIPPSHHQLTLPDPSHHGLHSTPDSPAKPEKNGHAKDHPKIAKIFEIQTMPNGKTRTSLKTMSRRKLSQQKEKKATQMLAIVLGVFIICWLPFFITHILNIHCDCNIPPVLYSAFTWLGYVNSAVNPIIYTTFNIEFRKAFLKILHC
# ETA (h) = ETA (h) (Homo sapiens (Human), UniProt P25101); assay: ExpresSProfile: endothelin receptor A, agonist radioligand; assay type: binding; details: Test Concentration 1.0E−05 M
# [2] = Plasma stability assay, human plasma; assay type: in vitro ADME
# Method: The plasma stability assay was performed to measure the degradation of compounds of the present invention in plasma. This is an important characteristic of a compound as compounds, with the exception of pro-drugs, which rapidly degrade in plasma generally show poor in vivo efficacy.
# The plasma was spiked with a 10 mM analyte solution in dimethyl sulfoxide to a final concentration of 10 μM, vortexed, and aliquotted to 50 μl samples. Two aliquots were stored at −20° C. until further treatment. Another two aliquots were incubated using an Eppendorf Thermomixer at 37° C. for 1, 4, and 24 hours. Sample clean-up was performed using a protein precipitation plate (Phenomenex Strata Impact, 64722-1-324-1) and using acetonitrile as precipitation agent. […] An aliquot of 10 μl was diluted with 90 μl 0.1% aqueous trifluoroacetic acid solution. The determination of the analyte in the clean sample solutions was performed on a Thermo TSQ Quantum Ultra triple quadrupole mass spectrometer equipped with a thermo Surveyor HPLC. The chromatographic separation was carried out on a Phenomenex Kinetex XB-C18 HPLC column (50×2 mm, […] particle size) with gradient elution using a mixture of 0.01% trifluoroacetic acid and 0.05% formic acid in water as eluent A and methanol as eluent B (20% B to 100% in 8 min, 400 μl/min, 40° C.). For mass spectrometric detection the selected reaction monitoring (SRM) was used.
# Quantitation was performed by external matrix calibration using an internal standard.
# NTS1 (NT1) (h) = NTS1 (NT1) (h) (Homo sapiens (Human), UniProt P30989); assay: ExpresSProfile: neurotensin receptor 1, agonist radioligand; assay type: binding; details: Test Concentration 1.0E−05 M
# Sequence of NTS1 (NT1) (h) (P30989 whole entry): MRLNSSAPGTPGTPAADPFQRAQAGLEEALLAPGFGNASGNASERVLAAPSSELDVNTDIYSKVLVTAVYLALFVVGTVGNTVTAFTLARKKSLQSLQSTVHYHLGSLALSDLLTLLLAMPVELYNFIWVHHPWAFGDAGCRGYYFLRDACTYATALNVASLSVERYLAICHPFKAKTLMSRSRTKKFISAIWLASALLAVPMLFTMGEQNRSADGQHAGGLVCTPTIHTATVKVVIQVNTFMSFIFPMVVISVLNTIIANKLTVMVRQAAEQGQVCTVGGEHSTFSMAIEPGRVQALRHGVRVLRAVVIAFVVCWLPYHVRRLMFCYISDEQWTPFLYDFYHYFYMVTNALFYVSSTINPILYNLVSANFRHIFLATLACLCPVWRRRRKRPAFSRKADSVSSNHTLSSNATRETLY
# SKCa channel = assay: ExpresSProfile: SKCa channel, antagonist radioligand; assay type: binding; details: Test Concentration 1.0E−05 M
# A1 (h) = A1 (h) (Homo sapiens (Human), UniProt P30542); assay: ExpresSProfile: adenosine receptor 1, antagonist radioligand; assay type: binding; details: Test Concentration 1.0E−05 M
# mu (MOP) (h) = mu (MOP) (h) (Homo sapiens (Human), UniProt P35372); assay: ExpresSProfile: mu opioid receptor, agonist radioligand; assay type: binding; details: Test Concentration 1.0E−05 M
# Sequence of mu (MOP) (h) (P35372 whole entry): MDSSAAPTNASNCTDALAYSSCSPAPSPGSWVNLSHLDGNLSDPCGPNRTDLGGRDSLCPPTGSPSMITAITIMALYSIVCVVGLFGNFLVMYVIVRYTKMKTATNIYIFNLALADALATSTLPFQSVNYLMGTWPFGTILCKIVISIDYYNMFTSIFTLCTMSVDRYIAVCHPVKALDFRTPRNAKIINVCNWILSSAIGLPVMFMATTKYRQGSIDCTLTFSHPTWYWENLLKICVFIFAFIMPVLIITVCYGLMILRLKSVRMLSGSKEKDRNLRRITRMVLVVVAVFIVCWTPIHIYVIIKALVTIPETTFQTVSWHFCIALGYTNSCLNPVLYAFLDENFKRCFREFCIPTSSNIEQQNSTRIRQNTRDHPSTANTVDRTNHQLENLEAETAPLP
# 5-HT2A (h) = 5-HT2A (h) (Homo sapiens (Human), UniProt P28223); assay: ExpresSProfile: 5-hydroxytryptamine receptor 2A, antagonist radioligand; assay type: binding; details: Test Concentration 1.0E−05 M
# Sequence of 5-HT2A (h) (P28223 whole entry): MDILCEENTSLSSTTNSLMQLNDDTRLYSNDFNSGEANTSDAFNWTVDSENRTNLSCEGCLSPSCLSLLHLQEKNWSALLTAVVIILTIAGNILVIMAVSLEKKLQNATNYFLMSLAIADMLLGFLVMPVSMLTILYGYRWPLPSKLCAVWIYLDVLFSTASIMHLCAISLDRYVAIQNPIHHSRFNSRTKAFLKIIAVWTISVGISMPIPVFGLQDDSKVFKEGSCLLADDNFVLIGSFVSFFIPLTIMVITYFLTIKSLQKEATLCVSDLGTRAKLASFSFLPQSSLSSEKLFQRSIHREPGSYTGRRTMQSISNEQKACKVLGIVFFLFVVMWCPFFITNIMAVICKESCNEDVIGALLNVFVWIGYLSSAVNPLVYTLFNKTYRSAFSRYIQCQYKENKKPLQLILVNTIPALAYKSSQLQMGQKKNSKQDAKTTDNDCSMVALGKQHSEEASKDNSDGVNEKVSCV
# MT1 (ML1A) (h) = MT1 (ML1A) (h) (Homo sapiens (Human), UniProt P48039); assay: ExpresSProfile: melatonin receptor 1, agonist radioligand; assay type: binding; details: Test Concentration 1.0E−05 M
# Sequence of MT1 (ML1A) (h) (P48039 whole entry): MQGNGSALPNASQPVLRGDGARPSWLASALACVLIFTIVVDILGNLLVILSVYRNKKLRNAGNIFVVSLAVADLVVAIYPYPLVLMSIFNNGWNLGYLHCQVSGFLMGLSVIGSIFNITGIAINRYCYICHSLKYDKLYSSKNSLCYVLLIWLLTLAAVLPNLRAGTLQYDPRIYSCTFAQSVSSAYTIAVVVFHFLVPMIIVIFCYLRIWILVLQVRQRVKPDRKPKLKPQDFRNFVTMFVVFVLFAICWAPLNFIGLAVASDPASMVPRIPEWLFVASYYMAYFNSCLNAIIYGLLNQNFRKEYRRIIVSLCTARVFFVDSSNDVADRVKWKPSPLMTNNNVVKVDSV
# H2 (h) = H2 (h) (Homo sapiens (Human), UniProt P25021); assay: ExpresSProfile: histamine receptor 2, antagonist radioligand; assay type: binding; details: Test Concentration 1.0E−05 M
# Sequence of H2 (h) (P25021 whole entry): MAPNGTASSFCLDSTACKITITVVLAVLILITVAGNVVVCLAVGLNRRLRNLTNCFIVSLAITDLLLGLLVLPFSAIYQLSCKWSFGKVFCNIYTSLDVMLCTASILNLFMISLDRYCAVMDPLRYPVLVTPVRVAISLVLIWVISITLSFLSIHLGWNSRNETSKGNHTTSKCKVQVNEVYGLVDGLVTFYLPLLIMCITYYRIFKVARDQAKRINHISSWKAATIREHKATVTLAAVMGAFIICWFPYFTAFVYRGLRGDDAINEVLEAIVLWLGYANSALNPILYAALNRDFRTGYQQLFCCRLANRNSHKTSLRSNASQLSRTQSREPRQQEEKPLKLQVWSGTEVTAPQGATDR
# V1a (h) = V1a (h) (Homo sapiens (Human), UniProt P37288); assay: ExpresSProfile: V1a, agonist radioligand; assay type: binding; details: Test Concentration 1.0E−05 M
# Sequence of V1a (h) (P37288 whole entry): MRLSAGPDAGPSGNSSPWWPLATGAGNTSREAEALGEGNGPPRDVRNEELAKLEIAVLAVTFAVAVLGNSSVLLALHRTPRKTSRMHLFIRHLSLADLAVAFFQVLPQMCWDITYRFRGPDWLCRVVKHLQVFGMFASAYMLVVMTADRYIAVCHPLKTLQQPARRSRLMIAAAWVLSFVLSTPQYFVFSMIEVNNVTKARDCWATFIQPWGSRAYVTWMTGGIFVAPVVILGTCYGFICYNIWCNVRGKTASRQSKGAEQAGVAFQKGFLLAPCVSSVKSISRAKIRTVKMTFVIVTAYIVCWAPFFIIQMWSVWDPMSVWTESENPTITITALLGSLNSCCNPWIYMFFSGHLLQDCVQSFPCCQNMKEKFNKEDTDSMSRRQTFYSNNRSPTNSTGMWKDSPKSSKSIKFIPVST
# 5-HT2B (h) = 5-HT2B (h) (Homo sapiens (Human), UniProt P41595); assay: ExpresSProfile: 5-hydroxytryptamine receptor 2B, agonist radioligand; assay type: binding; details: Test Concentration 1.0E−05 M
# Sequence of 5-HT2B (h) (P41595 whole entry): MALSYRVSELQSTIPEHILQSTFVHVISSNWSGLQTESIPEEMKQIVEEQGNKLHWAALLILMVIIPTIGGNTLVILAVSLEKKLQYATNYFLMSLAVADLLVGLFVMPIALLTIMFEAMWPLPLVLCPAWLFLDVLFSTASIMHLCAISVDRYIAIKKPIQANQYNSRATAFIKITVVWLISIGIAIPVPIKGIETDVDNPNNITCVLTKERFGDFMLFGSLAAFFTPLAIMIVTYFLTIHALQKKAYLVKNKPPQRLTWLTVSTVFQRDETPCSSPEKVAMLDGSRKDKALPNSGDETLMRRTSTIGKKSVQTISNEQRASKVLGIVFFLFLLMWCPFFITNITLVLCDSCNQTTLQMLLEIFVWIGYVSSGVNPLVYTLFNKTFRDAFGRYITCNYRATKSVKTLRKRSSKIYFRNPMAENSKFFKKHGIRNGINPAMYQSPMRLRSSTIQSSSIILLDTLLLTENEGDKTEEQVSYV
# NOP (ORL1) (h) = NOP (ORL1) (h) (Homo sapiens (Human), UniProt P41146); assay: ExpresSProfile: nociception receptor, agonist radioligand; assay type: binding; details: Test Concentration 1.0E−05 M
# [3] = biological target: norepinephrine transporter (h) (Homo sapiens (Human), UniProt P23975); assay: ExpresSProfile: norepinephrine transporter, antagonist radioligand; assay type: binding; details: Test Concentration 1.0E−05 M
# Sequence of norepinephrine transporter (h) (P23975 whole entry): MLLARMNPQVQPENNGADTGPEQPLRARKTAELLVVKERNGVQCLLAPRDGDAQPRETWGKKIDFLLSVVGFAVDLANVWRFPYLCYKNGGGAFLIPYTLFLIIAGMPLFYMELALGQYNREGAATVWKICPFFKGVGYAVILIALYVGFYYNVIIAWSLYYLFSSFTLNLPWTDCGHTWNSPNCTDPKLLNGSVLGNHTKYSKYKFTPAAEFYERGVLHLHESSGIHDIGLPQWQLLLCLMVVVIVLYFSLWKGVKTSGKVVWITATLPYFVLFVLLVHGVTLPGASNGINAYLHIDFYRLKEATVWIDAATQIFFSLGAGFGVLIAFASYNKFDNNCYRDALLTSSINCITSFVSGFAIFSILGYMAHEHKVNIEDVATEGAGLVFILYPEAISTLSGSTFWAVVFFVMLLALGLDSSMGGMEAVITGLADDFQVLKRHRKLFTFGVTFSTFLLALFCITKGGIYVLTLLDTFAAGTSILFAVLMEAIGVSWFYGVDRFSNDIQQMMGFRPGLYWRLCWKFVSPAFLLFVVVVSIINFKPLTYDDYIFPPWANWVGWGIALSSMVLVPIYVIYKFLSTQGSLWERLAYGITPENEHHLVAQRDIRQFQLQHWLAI
# 5-HT transporter (h) = 5-HT transporter (h) (Homo sapiens (Human), UniProt P31645); assay: ExpresSProfile: 5-HT transporter, antagonist radioligand; assay type: binding; details: Test Concentration 1.0E−05 M
# Sequence of 5-HT transporter (h) (P31645 whole entry): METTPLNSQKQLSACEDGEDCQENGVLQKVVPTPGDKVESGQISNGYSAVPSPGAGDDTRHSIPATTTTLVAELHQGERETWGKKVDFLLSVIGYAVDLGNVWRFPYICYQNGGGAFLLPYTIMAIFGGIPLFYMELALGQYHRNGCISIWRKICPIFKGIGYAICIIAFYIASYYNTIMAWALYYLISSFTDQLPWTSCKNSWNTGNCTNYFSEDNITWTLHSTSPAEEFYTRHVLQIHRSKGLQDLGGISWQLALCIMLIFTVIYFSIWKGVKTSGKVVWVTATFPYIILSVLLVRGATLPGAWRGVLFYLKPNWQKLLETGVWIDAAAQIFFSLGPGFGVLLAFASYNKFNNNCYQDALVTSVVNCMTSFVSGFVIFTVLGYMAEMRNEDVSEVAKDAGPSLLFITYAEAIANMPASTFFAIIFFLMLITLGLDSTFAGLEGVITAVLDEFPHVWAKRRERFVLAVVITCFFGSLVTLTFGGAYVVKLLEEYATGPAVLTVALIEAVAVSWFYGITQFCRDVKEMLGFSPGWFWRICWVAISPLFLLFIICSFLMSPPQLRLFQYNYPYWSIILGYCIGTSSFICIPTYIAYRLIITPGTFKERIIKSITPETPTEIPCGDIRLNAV
# [4] = read-out: % Inhibition of Control Specific Binding
# [5] = read-out: % of Control Specific Binding 1st
# [6] = read-out: % of Control Specific Binding 2nd
# [7] = read-out: % of Control Specific Binding Mean
smiles,measurement,setting,value
"COc1cccc(OC)c1-c1cc(C(=O)NC2(C(=O)O)C3CC4CC(C3)CC2C4)nn1-c1ccc(C(=O)N(C)CCCN(C)CCCN(C)C(=O)CN2CCN(CC(=O)O)CCN(CC(=O)O)CCN(CC(=O)O)CC2)cc1C(C)C (stereo not drawn) [(IIIa), 2-{[1-{4-[(3-{[3-(DOTA-methyl-amino)-propyl]-methyl-amino}-propyl)-methyl-carbamoyl]-2-isopropyl-phenyl}-5-(2,6-dimethoxy-phenyl)-1H-pyrazole-3-carbonyl]-amino}-adamantane-2-carboxylic acid]",% Inhibition of Control Specific Binding,[1],0%
same,% of Control Specific Binding 1st,[1],96.1%
same,% of Control Specific Binding 2nd,[1],103.7%
same,% of Control Specific Binding Mean,[1],99.9%
same,inhibition at 10 µM,5-HT1B; [4],-7%
same,remaining activity at 10 µM,5-HT1B; [5],107%
same,remaining activity at 10 µM,5-HT1B; [6],106%
same,remaining activity at 10 µM,5-HT1B; [7],107%
same,% Inhibition of Control Specific Binding,KV channel,−4%
same,% of Control Specific Binding 1st,KV channel,104.3%
same,% of Control Specific Binding 2nd,KV channel,104.2%
same,% of Control Specific Binding Mean,KV channel,104.3%
same,inhibition at 10 µM,MC4 (h); [4],-8%
same,remaining activity at 10 µM,MC4 (h); [5],113%
same,remaining activity at 10 µM,MC4 (h); [6],104%
same,remaining activity at 10 µM,MC4 (h); [7],108%
same,inhibition at 10 µM,5-HT3 (h); [4],-8%
same,remaining activity at 10 µM,5-HT3 (h); [5],108%
same,remaining activity at 10 µM,5-HT3 (h); [6],108%
same,remaining activity at 10 µM,5-HT3 (h); [7],108%
same,inhibition at 10 µM,D2S (h); [4],-9%
same,remaining activity at 10 µM,D2S (h); [5],113%
same,remaining activity at 10 µM,D2S (h); [6],105%
same,remaining activity at 10 µM,D2S (h); [7],109%
same,inhibition at 10 µM,ETA (h); [4],-10%
same,remaining activity at 10 µM,ETA (h); [5],114%
same,remaining activity at 10 µM,ETA (h); [6],105%
same,remaining activity at 10 µM,ETA (h); [7],110%
same,stability in human plasma,[2],highly stable
same,"% remaining after 24 h incubation, Human plasma","[2]; 10 μM, 37° C., 24 h",>90%
same,inhibition at 10 µM,NTS1 (NT1) (h); [4],99%
same,remaining activity at 10 µM,NTS1 (NT1) (h); [5],2.7%
same,remaining activity at 10 µM,NTS1 (NT1) (h); [6],-0.1%
same,remaining activity at 10 µM,NTS1 (NT1) (h); [7],1.3%
same,% Inhibition of Control Specific Binding,SKCa channel,4%
same,% of Control Specific Binding 1st,SKCa channel,97.3%
same,% of Control Specific Binding 2nd,SKCa channel,95.2%
same,% of Control Specific Binding Mean,SKCa channel,96.2%
same,inhibition at 10 µM,A1 (h); [4],-24%
same,remaining activity at 10 µM,A1 (h); [5],143%
same,remaining activity at 10 µM,A1 (h); [6],104%
same,remaining activity at 10 µM,A1 (h); [7],124%
same,inhibition at 10 µM,mu (MOP) (h); [4],0%
same,remaining activity at 10 µM,mu (MOP) (h); [5],108%
same,remaining activity at 10 µM,mu (MOP) (h); [6],92.6%
same,remaining activity at 10 µM,mu (MOP) (h); [7],100%
same,inhibition at 10 µM,5-HT2A (h); [4],-2%
same,remaining activity at 10 µM,5-HT2A (h); [5],101%
same,remaining activity at 10 µM,5-HT2A (h); [6],103%
same,remaining activity at 10 µM,5-HT2A (h); [7],102%
same,inhibition at 10 µM,MT1 (ML1A) (h); [4],1%
same,remaining activity at 10 µM,MT1 (ML1A) (h); [5],103%
same,remaining activity at 10 µM,MT1 (ML1A) (h); [6],95.9%
same,remaining activity at 10 µM,MT1 (ML1A) (h); [7],99.3%
same,inhibition at 10 µM,H2 (h); [4],-4%
same,remaining activity at 10 µM,H2 (h); [5],106%
same,remaining activity at 10 µM,H2 (h); [6],102%
same,remaining activity at 10 µM,H2 (h); [7],104%
same,inhibition at 10 µM,V1a (h); [4],6%
same,remaining activity at 10 µM,V1a (h); [5],94.1%
same,remaining activity at 10 µM,V1a (h); [6],93%
same,remaining activity at 10 µM,V1a (h); [7],93.5%
same,inhibition at 10 µM,5-HT2B (h); [4],-22%
same,remaining activity at 10 µM,5-HT2B (h); [5],118%
same,remaining activity at 10 µM,5-HT2B (h); [6],125%
same,remaining activity at 10 µM,5-HT2B (h); [7],122%
same,inhibition at 10 µM,NOP (ORL1) (h); [4],-7%
same,remaining activity at 10 µM,NOP (ORL1) (h); [5],104%
same,remaining activity at 10 µM,NOP (ORL1) (h); [6],109%
same,remaining activity at 10 µM,NOP (ORL1) (h); [7],107%
same,inhibition at 10 µM,[3]; [4],-12%
same,remaining activity at 10 µM,[3]; [5],119%
same,remaining activity at 10 µM,[3]; [6],105%
same,remaining activity at 10 µM,[3]; [7],112%
same,inhibition at 10 µM,5-HT transporter (h); [4],-13%
same,remaining activity at 10 µM,5-HT transporter (h); [5],103%
same,remaining activity at 10 µM,5-HT transporter (h); [6],123%
same,remaining activity at 10 µM,5-HT transporter (h); [7],113%
